Ends that are not written are not given here.
Legend:
S. cohnii L5 [1] = assay: MIC, broth microdilution; assay type: cell-based, Staphylococcus cohnii; details: for MICs of derivatives: strain not named in the sentence (table S6: S. cohnii L5 and E. coli)
Vero cells = assay: Cytotoxicity, WST-1 assay; assay type: cell-based, African green monkey; details: up to 512 μM, 24 hours
BALB/c mice = assay: In vivo toxicity experiments; design: species or system mouse; details: after 5 days; intraperitoneal, highest dose 150 mg/kg; n = 5
[2] = test system: sheep red blood cells (RBCs); assay: Hemolytic activity; assay type: cell-based; details: 0 to 512 μM, 37°C, 1 hour
S. cohnii L5 [3] = assay: Mouse skin wound infection model; assay type: in vivo; details: 10 days; NCBP1 8 mg/kg
HEp-2 cells = assay: Cytotoxicity, WST-1 assay; assay type: cell-based, human; details: up to 512 μM, 24 hours
H9c2 cells = assay: Cytotoxicity, WST-1 assay; assay type: cell-based, rat; details: up to 512 μM, 24 hours
pH stability = assay type: physicochemical; details: pH 2 to 12 for 1 and 2 hours, 37°C; read-out activity on S. cohnii L5
A549 cells = assay: Cytotoxicity, WST-1 assay; assay type: cell-based; details: up to 512 μM, 24 hours

Sequence	MICs of derivatives (S. cohnii L5 [1]) [µM]	toxicity toward cells (Vero cells)	survival rate of mice (BALB/c mice) [%]	hemolytic activity [2]	MIC (S. cohnii L5 [1]; S. cohnii L5, broth microdilution, 18 h, 37°C) [µM]	growth of the mice, body weight (S. cohnii L5 [3])	toxicity toward cells (HEp-2 cells)	toxicity toward cells (H9c2 cells)	pH stability (pH stability)	toxicity toward cells (A549 cells)
APWLRVALCPG [NCBP1a]	> 512	–	–	–	–	–	–	–	–	–
KPWLAVALCPG [NCBP1b]	> 512	–	–	–	–	–	–	–	–	–
KPWLRVALCPG [NCBP1]	–	negligible toxicity	100	no noticeable hemolytic activity	16	did not affect the normal growth	negligible toxicity	negligible toxicity	resistant to a wide range of pH values	negligible toxicity

Reference: publication PMC11922054 (Science Advances, 2025)
